{"source": "patent US7674789B2", "about": "“Compounds” (Glaxo Group Limited, priority 2005, dated 2010)", "key": {"[1]": {"test_system": "influx of neutrophils to the lung in LPS-challenged rats", "test": "Rat LPS neutrophilia model", "assay_type": "in vivo", "conditions": "intratracheal compound 15 min-24 hours before LPS aerosol (100 ug/ml, 15 min), lavage 4 hours later, in at least one of the range of conditions tested"}, "[2]": {"test_system": "IL-6, IL-8, GM-CSF, RANTES and COX-2", "conditions": "a number of different cell types; cited from earlier work"}, "[3]": {"test_system": "TGF-β-induced fibronectin and thrombospondin", "conditions": "Laping et al., 2002, Molec. Pharmacol. 62:58-64; cited from earlier work"}}, "note": "Where a name gives a salt, the structure may show the parent alone."}
{"smiles": "CNC(=O)c1ccc(C)c(-c2nc(N3CCC(N4CCCC4)CC3)nc3c2CNC(=O)N3c2c(F)cccc2F)c1", "note": "[Example 175, 3-{8-(2,6-difluorophenyl)-7-oxo-2-[4-(1-pyrrolidinyl)-1-piperidinyl]-5,6,7,8-tetrahydropyrimido[4,5-d]pyrimidin-4-yl}-N,4-dimethylbenzamide]", "values": [{"measurement": "inhibition of neutrophilia (neutrophil influx to the lung)", "setting": "[1]", "value": "inactive"}]}
{"smiles": "CNC(=O)c1ccc(C)c(-c2nc(N3CCC(N4CCCCC4)CC3)nc3c2CNC(=O)N3c2c(F)cccc2F)c1", "note": "[Example 176, 3-[2-(1,4′-bipiperidin-1′-yl)-8-(2,6-difluorophenyl)-7-oxo-5,6,7,8-tetrahydropyrimido[4,5-d]pyrimidin-4-yl]-N,4-dimethylbenzamide]", "values": [{"measurement": "inhibition of neutrophilia (neutrophil influx to the lung)", "setting": "[1]", "value": "statistically nonsignificant inhibition of neutrophilia"}]}
{"smiles": "Cc1ccc(C(=O)NC(C)C)cc1-c1nc(N2CCCN(C)CC2)nc2c1CNC(=O)N2c1c(F)cccc1F", "note": "[Example 179, 3-[8-(2,6-difluorophenyl)-2-(4-methylhexahydro-1H-1,4-diazepin-1-yl)-7-oxo-6,7,8-tetrahydropyrimido[4,5-d]pyrimidin-4-yl]-4-methyl-N-(1-methylethyl)benzamide trifluoroacetate]", "values": [{"measurement": "inhibition of neutrophilia (neutrophil influx to the lung)", "setting": "[1]", "value": "statistically nonsignificant inhibition of neutrophilia"}]}
{"smiles": "Cc1ccc(C(=O)NC(C)C)cc1-c1nc(NC2CCN(Cc3ccccc3)CC2)nc2c1CNC(=O)N2c1c(F)cccc1F", "note": "[Example 200, 3-(8-(2,6-difluorophenyl)-7-oxo-2-{[1-(phenylmethyl)-4-piperidinyl]amino}-5,6,7,8-tetrahydropyrimido[4,5-d]pyrimidin-4-yl)-4-methyl-N-(1-methylethyl)benzamide]", "values": [{"measurement": "inhibition of neutrophilia (neutrophil influx to the lung)", "setting": "[1]", "value": "statistically significant inhibition of neutrophilia"}]}
{"smiles": "C[S+]([O-])c1ccc(-c2nc(-c3ccncc3)c(-c3ccc(F)cc3)[nH]2)cc1", "note": "(stereo not shown) [SB-203580]", "values": [{"measurement": "decreasing the synthesis of pro-inflammatory proteins including IL-6, IL-8, GM-CSF, RANTES and COX-2", "setting": "[2]", "value": "effective"}]}
{"smiles": "COc1nccc(-c2c(-c3ccc(F)cc3)ncn2C2CCNCC2)n1", "note": "[SB-242235]", "values": [{"measurement": "effect on TGF-β-induced increases in fibronectin and thrombospondin", "setting": "[3]", "value": "inhibited"}]}
{"smiles": "Fc1ccc(-c2nc3n(c2-c2ccncc2)CCS3)cc1", "note": "[SK&F 86002]", "values": [{"measurement": "decreasing the synthesis of pro-inflammatory proteins including IL-6, IL-8, GM-CSF, RANTES and COX-2", "setting": "[2]", "value": "effective"}]}
